Article PMC6465099 (Clinical Pharmacology and Therapeutics, 2018)

How the values were obtained:
[1] = biological target: T1, OCT2 (Homo sapiens, UniProt O15244); experiment: Inhibition of OCT2-mediated; format: cell-based; settings: sum of unbound Cmax/IC50 of abemaciclib, M2 and M20
T1 sequence (O15244 1-555): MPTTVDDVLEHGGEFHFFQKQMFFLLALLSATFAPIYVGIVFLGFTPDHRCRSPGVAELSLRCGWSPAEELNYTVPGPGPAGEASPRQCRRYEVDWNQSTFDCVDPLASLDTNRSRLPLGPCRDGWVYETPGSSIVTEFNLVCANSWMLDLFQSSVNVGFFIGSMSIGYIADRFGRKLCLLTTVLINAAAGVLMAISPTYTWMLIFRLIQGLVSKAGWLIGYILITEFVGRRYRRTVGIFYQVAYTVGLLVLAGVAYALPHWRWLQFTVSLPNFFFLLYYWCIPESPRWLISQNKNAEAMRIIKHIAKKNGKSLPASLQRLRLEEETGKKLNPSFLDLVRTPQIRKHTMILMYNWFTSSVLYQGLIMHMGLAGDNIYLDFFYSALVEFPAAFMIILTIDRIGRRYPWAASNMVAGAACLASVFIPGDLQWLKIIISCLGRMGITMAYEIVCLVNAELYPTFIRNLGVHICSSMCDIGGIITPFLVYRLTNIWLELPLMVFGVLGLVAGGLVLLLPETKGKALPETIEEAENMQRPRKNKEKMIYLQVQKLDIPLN

[2] = biological target: T2, MATE1 (Homo sapiens, UniProt Q96FL8); experiment: Inhibition of MATE1-mediated; format: cell-based; settings: sum of unbound Cmax/IC50 of abemaciclib, M2 and M20
T2 sequence (Q96FL8 1-570): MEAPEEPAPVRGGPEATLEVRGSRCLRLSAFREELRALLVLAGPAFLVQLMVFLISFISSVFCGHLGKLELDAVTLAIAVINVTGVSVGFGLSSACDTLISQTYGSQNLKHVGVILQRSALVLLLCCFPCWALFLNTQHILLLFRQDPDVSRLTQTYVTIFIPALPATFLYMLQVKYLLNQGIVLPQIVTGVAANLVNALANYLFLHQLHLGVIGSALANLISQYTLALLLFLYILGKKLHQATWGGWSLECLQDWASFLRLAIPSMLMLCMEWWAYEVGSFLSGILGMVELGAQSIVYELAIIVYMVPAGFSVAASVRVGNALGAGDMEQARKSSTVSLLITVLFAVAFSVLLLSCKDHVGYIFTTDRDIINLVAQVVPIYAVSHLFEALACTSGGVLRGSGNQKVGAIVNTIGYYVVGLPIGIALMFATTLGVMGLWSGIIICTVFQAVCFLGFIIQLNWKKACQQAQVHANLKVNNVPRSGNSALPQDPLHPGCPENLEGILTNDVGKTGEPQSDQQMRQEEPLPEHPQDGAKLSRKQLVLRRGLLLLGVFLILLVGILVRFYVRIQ

[3] = biological target: MATE2-K (Homo sapiens, UniProt Q86VL8); experiment: Inhibition of MATE2-K-mediated; format: cell-based; settings: sum of unbound Cmax/IC50 of abemaciclib, M2 and M20
Chain of MATE2-K (Q86VL8 1-566 isoform Q86VL8-3): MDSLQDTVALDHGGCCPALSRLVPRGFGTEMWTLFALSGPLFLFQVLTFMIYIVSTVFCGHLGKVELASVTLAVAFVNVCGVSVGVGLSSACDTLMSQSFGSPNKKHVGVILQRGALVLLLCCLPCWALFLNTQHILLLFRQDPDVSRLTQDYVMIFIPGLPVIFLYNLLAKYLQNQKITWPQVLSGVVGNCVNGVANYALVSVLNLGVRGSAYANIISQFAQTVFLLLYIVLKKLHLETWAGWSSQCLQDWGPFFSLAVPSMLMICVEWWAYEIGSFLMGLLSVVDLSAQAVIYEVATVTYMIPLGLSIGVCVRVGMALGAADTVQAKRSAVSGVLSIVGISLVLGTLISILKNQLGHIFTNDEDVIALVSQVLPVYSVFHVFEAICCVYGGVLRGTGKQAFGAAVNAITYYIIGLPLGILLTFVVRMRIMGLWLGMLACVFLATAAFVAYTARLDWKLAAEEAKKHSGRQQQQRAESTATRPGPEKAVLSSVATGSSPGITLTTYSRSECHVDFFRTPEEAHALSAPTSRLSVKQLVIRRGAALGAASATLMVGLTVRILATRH

[4] = Clinical crossover study: iohexol clearance; format: in vivo, human; settings: for clearance: human, plasma, intravenous
[5] = Clinical study: serum creatinine and estimated GFR after abemaciclib; format: in vivo, human
[6] = Clinical study: renal injury biomarkers; format: in vivo, human
[7] = patients with cancer and healthy subjects; cited from earlier work

| Compound | Combined DDI index, OCT2 [1] | Combined DDI index, MATE1 [2] | Combined DDI index, MATE2-K [3] | Effect of coadministration on iohexol PK ([4]; 400 mg abemaciclib with iohexol) | eGFR (CKD-EPI equation using SCr) ([5]; abemaciclib in combination with iohexol) [mL/minute/1.73 m^2] | eGFR (CKD-EPI equation using SCr) ([5]; abemaciclib in combination with metformin) [mL/minute/1.73 m^2] | eGFR calculated using serum cystatin-C ([5]; abemaciclib vs. placebo periods) | Mean increase in SCr concentration ([5]; between 10 and 12 hours postdose, 400 mg abemaciclib, healthy subjects) [µmol/L] | Reversible increase in SCr expected in patients ([5]; patients dosed with abemaciclib, suggested by the findings) | Time of peak SCr elevation ([5]; post abemaciclib dose) [h] | Trends in serum cystatin-C or NGAL indicative of renal injury ([6]; abemaciclib with either metformin or iohexol) | Creatinine-normalized urinary concentrations of NGAL and KIM-1 ([6]; following abemaciclib dosing) | Reversible increase in serum creatinine over baseline [7] | clearance [4] [mL/min] | clearance ([4]; 3235 mg) [mL/min] |
| --- | --- | --- | --- | --- | --- | --- | --- | --- | --- | --- | --- | --- | --- | --- | --- |
| CCN1CCN(Cc2ccc(Nc3ncc(F)c(-c4cc(F)c5nc(C)n(C(C)C)c5c4)n3)nc2)CC1 [Abemaciclib] | 0.03 | 0.13 | 0.06 | did not affect | 53.6 | 57.2 | did not change | 35.7 to 44.6 | 10–40% | 12 | no trends | No notable change | 15–40% |  |  |
| CC(=O)N(CC(O)CO)c1c(I)c(C(=O)NCC(O)CO)c(I)c(C(=O)NCC(O)CO)c1I (stereo not drawn) [iohexol] |  |  |  |  |  |  |  |  |  |  |  |  |  | 85.6 | 89 |
